Results published in patent US10450297B2, “Sulfonyl amide derivatives for the treatment of abnormal cell growth” (Pfizer, Inc., priority 2007, dated 2019).
pIC50: −log10 of the molar value.

Biological target: FAK kinase (catalytic construct FAK(410-689)) (Homo sapiens (Human), UniProt Q05397)
Assay: FAKcd kinase ELISA (inhibition of poly-glu-tyr phosphorylation by FAK(410-689))
Assay type: biochemical
Settings: 50 μM final ATP

Sequence of FAK kinase (catalytic construct FAK(410-689)) (Q05397 410-689): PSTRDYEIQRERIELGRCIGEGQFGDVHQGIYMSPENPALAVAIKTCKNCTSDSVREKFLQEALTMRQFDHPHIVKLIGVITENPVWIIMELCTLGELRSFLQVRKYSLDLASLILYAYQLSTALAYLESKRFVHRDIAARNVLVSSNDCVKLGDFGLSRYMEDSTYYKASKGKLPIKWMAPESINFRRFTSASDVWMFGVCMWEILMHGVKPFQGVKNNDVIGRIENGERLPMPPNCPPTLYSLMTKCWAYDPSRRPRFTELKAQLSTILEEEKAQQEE

SMILES | pIC50
CN(c1ncccc1CNc1nc(Nc2cccc(CN)c2)ncc1C(F)(F)F)S(C)(=O)=O [Compound 214, N-[3-({[2-{[3-(aminomethyl)phenyl]amino}-5-(trifluoromethyl)pyrimidin-4-yl]amino}methyl)pyridin-2-yl]-N-methylmethane-sulfonamide] | 9.15
CC(=O)NCC(=O)NCc1ccc(Nc2ncc(C(F)(F)F)c(NCc3cccnc3N(C)S(C)(=O)=O)n2)cc1 [Compound 215, N~2~-acetyl-N-[4-({4-[({2-[methyl(methylsulfonyl)amino]pyridin-3-yl}methyl)amino]-5-(trifluoromethyl)pyrimidin-2-yl}amino)benzyl]glycinamide] | 9.22
CN(c1ncccc1CNc1nc(Nc2ccc(CNC(N)=O)cc2)ncc1C(F)(F)F)S(C)(=O)=O [Compound 216, N-{3-[({2-[(4-{[(aminocarbonyl)amino]-methyl}phenyl)amino]-5-(trifluoromethyl)pyrimidin-4-yl}amino)methyl]pyridin-2-yl}-N-methylmethane-sulfonamide] | 9.22
CN(c1ncccc1CNc1nc(Nc2ccc(CC(=O)NC3CC3)cc2)ncc1C(F)(F)F)S(C)(=O)=O [Compound 217, N-cyclopropyl-2-[4-({4-[({2~ [methyl(methylsulfonyl)amino]pyridin-3-yl}methyl)amino]-5-(trifluoromethyl)pyrimidin-2-yl}amino)phenyl]acetamide] | 9.22
CC(=O)NCc1cccc(Nc2ncc(C(F)(F)F)c(NCc3cccnc3N(C)S(C)(=O)=O)n2)c1 [Compound 218, N-[3-({4-[({2-[methyl(methylsulfonyl)amino]pyridin-3-yl}methyl)amino]-5-(trifluoromethyl)pyrimidin-2-yl}amino)benzyl]acetamide] | 9.22
CN(c1ncccc1CNc1nc(Nc2ccc(C(=O)OC(C)(C)C)cc2)ncc1C(F)(F)F)S(C)(=O)=O [Compound 219, tert-butyl 4-({4-[({2-[methyl(methylsulfonyl)amino]pyridin-3-yl}methyl)amino]-5-(trifluoromethyl)pyrimidin-2-yl}amino)benzoate] | 9.22
Cc1ccc(C#N)cc1Nc1ncc(C(F)(F)F)c(NCc2cccnc2N(C)S(C)(=O)=O)n1 [Compound 220, N-{3-[({2-[(5-cyano-2-methylphenyl)amino]-5-(trifluoromethyl)pyrimidin-4-yl}amino)methyl]pyridin-2-yl}-N-methylmethane-sulfonamide] | 9.22
Cc1cc(Nc2ncc(C(F)(F)F)c(NCc3cccnc3N(C)S(C)(=O)=O)n2)ccn1 [Compound 221, N-methyl-N-{3-[({2-[(2-methylpyridin-4-yl)amino]-5-(trifluoromethyl)pyrimidin-4-yl}amino)methyl]pyridin-2-yl}methanesulfonamide] | 6.73
CN(c1ncccc1CNc1nc(Nc2cccc(CNC(N)=O)c2)ncc1C(F)(F)F)S(C)(=O)=O [Compound 222, N-{3-[({2-[(3-{[(aminocarbonyl)amino]-methyl}phenyl)amino]-5-(trifluoromethyl)pyrimidin-4-yl}amino)methyl]pyridin-2-yl}-N-methylrnethanesulfonamide] | 9.22
CC(=O)NCC(=O)NCc1cccc(Nc2ncc(C(F)(F)F)c(NCc3cccnc3N(C)S(C)(=O)=O)n2)c1 [Compound 223, N-2-acetyl-N-[3-({4-[({2-[methyl(methylsulfonyl)amino]pyridin-3-yl}methyl)amino]-5-(trifluoromethyl)pyrimidin-2-yl}amino)benzyl]glycinamide] | 9.22
CN(C)C(=O)c1ccc(Nc2ncc(C(F)(F)F)c(NCc3ccccc3N(C)S(C)(=O)=O)n2)cc1 [Compound 224, N,N-dimethyl-4-{[4-({2-[methyl(methylsulfonyl)amino]benzyl}amino)-5-(trifluoromethyl)pyrimidin-2-yl]amino}benzamide] | 9.22
CN(C)C(=O)c1ccc(Nc2ncc(C(F)(F)F)c(NCc3ccccc3NS(C)(=O)=O)n2)cc1 [Compound 225, N,N-dimethyl-4-{[4-({2-[(methylsuifonyl)amino]benzyl}amino)-5-(trifluoromethyl)pyrimidin-2-yl]amino}benzamide] | 9.01
Cc1ccc(CNc2nc(Nc3ccc(C(=O)N(C)C)cc3)ncc2C(F)(F)F)c(NS(C)(=O)=O)c1 [Compound 226, N,N-dimethyl-4-{[4-({4-methyl-2-[(methylsulfonyl)amino]benzyl}amino)-5-(trifluoromethyl)pyrimidin-2-yl]amino}benzamide] | 8.53

Now from value to compound:

pIC50 | SMILES
8.66 | CN(C)C(=O)c1ccc(Nc2ncc(C(F)(F)F)c(NCc3cccc(N(C)S(C)(=O)=O)c3)n2)cc1 [Compound 228, N, N-dimethyl-4-{[4-({3-[methyl(methylsulfonyl)amino]benzyl}amino)-5-(trifluoromethyl)pyrimidin-2-yl]amino}benzamide]
8.62 | CN(C)C(=O)c1ccc(Nc2ncc(C(F)(F)F)c(NCc3cccnc3N(C)S(C)(=O)=O)n2)cc1 [Compound 230, N,N-dimethyl-4-({4-[({2-[methyl(methylsulfonyl)amino]pyridin-3-yl}methyl)amino]-5-(trifluoromethyl)pyrimidin-2-yl}amino)benzamide]
9.22 | Cc1ccc(CNc2nc(Nc3ccc(C(=O)N(C)C)cc3)ncc2C(F)(F)F)c(N(C)S(C)(=O)=O)n1 [Compound 231, N,N-dimethyl-4-({4-[({6-methyl-2-[methyl(methylsulfonyl)amino]pyridin-3-yl}methyl)amino]-5-(trifluoromethyl)pyrimidin-2-yl}amino)benzamide]
8.58 | CN(c1ncccc1CNc1nc(Nc2ccc(C(=O)N3C[C@@H](F)[C@H](F)C3)cc2)ncc1C(F)(F)F)S(C)(=O)=O [Compound 232, N-{3-[({2-[(4-{[(3R,4R)-3,4-difluoropyrrolidin-1-yl]carbonyl}phenyl)amino]-5-(trifluoromethyl)pyrimidin-4-yl}amino)methyl]pyridin-2-yl}-N-methylmethane-sulfonamide]
8.88 | CN(C)CCCNC(=O)c1ccc(Nc2ncc(C(F)(F)F)c(NCc3cccnc3N(C)S(C)(=O)=O)n2)cc1 [Compound 233, N-[3-(dimethylamino)propyl]-4-({4-[({2-[methyl(methylsulfonyl)amino]pyridin-3-yl}methyl)amino]-5-(trifluoromethyl)pyrimidin-2-yl}amino)benzamide]
8.63 | CN(CCO)C(=O)c1ccc(Nc2ncc(C(F)(F)F)c(NCc3cccnc3N(C)S(C)(=O)=O)n2)cc1 [Compound 234, N-(2-hydroxyethyl)-N-methyl-4-({4-{({2-[methyl(methylsulfonyl)amino]pyridin-3-yl}methyl)amino]-5-(trifluoromethyl)pyrimidin-2-yl}amino)benzamide]
8.85 | CN(c1ncccc1CNc1nc(Nc2ccc(C(=O)N3CC[C@H](F)C3)cc2)ncc1C(F)(F)F)S(C)(=O)=O [Compound 236, N-{3-[({2-[(4-{[(3S)-3-fluoropyrrolidin-1-yl]carbonyl}phenyl)amino]-5-(trifluoromethyl)pyrimidin-4-yl}amino)methyl]pyridin-2-yl}-N-methylmethane-sulfonamide]
8.69 | CN(c1ncccc1CNc1nc(Nc2ccc(C(=O)N3CCCC3)cc2)ncc1C(F)(F)F)S(C)(=O)=O [Compound 237, N-methyl-N-[3-({[2-{[4-(pyrrolidin-1-ylcarbonyl)phenyl]amino}-5-(trifluoromethyl)pyrimidin-4-yl]amino}methyl)pyridin-2-yl]methanesulfonamide]
8.90 | CN(c1ncccc1CNc1nc(Nc2ccc(C(=O)NC[C@H]3CCCO3)cc2)ncc1C(F)(F)F)S(C)(=O)=O [Compound 238, 4-({4-[({2-[methyl(methylsulfonyl)amino]pyridin-3-yl}methyl)amino]-5-(trifluoromethyl)pyrimidin-2-yl}amino)-N-[(2R)-tetrahydrofuran-2-ylmethyl]benzamide]
9.22 | CN(c1ncccc1CNc1nc(Nc2ccc(C(=O)N3CCC(O)CC3)cc2)ncc1C(F)(F)F)S(C)(=O)=O [Compound 239, N-[3-({[2-({4-[(4-hydroxypiperidin-1-yl)carbonyl]phenyl}amino)-5-(trifluoromethyl)pyrimidin-4-yl]amino}methyl)pyridin-2-yl]-N-methylmethane-sulfonamide]
9.16 | CN(c1ncccc1CNc1nc(Nc2ccc(C(=O)NC3CCC3)cc2)ncc1C(F)(F)F)S(C)(=O)=O [Compound 240, N-cyclobutyl-4-({4-[({2-[methyl(methylsulfonyl)amino]pyridin-3-yl}methyl)amino]-5-(trifluoromethyl)pyrimidin-2-yl}amino)benzamide]
9.22 | CC(C)C(CO)NC(=O)c1ccc(Nc2ncc(C(F)(F)F)c(NCc3cccnc3N(C)S(C)(=O)=O)n2)cc1 (centres unmarked) [Compound 241, N-[1-(hydroxymethyl)-2-methylpropyl]-4-({4-[{{2-[methyl(methylsulfonyl)amino]pyridin-3-yl}methyl)amino]-5-(trifluoromethyl)pyrimidin-2-yl}amino)benzamide]
9.00 | CC(C)NC(=O)c1ccc(Nc2ncc(C(F)(F)F)c(NCc3cccnc3N(C)S(C)(=O)=O)n2)cc1 [Compound 242, N-isopropyl-4-({4-[({2-[methyl(methylsulfonyl)amino]pyridin-3-yl}methyl)amino]-5-(trifluoromethyl)pyrimidin-2-yl}amino)benzamide]
8.68 | CN(CC1CC1)C(=O)c1ccc(Nc2ncc(C(F)(F)F)c(NCc3cccnc3N(C)S(C)(=O)=O)n2)cc1 [Compound 243]
8.95 | CN(c1ncccc1CNc1nc(Nc2ccc(C(=O)NCCO)cc2)ncc1C(F)(F)F)S(C)(=O)=O [Compound 244, N-(2-hydroxyethyl)-4-({4-[({2-[methyl(methylsulfonyl)amino]pyridin-3-yl}methyl)amino]-5-(trifluoromethyl)pyrimidin-2-yl}amino)benzamide]
8.58 | CC(=O)NCCNC(=O)c1ccc(Nc2ncc(C(F)(F)F)c(NCc3cccnc3N(C)S(C)(=O)=O)n2)cc1 [Compound 245, N-[2-(acetylamino)ethyl]-4-({4-[({2-[methyl(methylsulfonyl)amino]pyridin-3-yl}methyl)amino]-5-(trifluoromethyl)pyrimidin-2-yl}amino)benzamide]
